“And” between values parts separate entries of the source, which are not always exact repeats. Equal entries are not always repeated.
What was measured:
Experiment in all cases: radiometric filter-binding kinase assay, Kinase HotSpot
Settings in all cases: compound 0.5 µM; ATP 10 µM
AKT2 (human) = AKT2 (human) (UniProt P31751)
BMX (human) = BMX (human) (UniProt P51813)
BRSK1 (human) = BRSK1 (human) (UniProt Q8TDC3)
CAMK2D (human) = CAMK2D (human) (UniProt Q13557)
CDC42BPB (human) = CDC42BPB (human) (UniProt Q9Y5S2)
CDK4 CCND1 (human) = CDK4 CCND1 (human) (UniProt P24385+P11802)
CLK2 (human) = CLK2 (human) (UniProt P49760)
CSK (human) = CSK (human) (UniProt P41240)
DAPK1 (human) = DAPK1 (human) (UniProt P53355)
DMPK (human) = DMPK (human) (UniProt Q09013)
EPHA4 (human) = EPHA4 (human) (UniProt P54764)
EPHB1 (human) = EPHB1 (human) (UniProt P54762)
GRK6 (human) = GRK6 (human) (UniProt P43250)
GSG2 (human) = GSG2 (human) (UniProt Q8TF76)
IKBKE (human) = IKBKE (human) (UniProt Q14164)
LIMK1 (human) = LIMK1 (human) (UniProt P53667)
MAP2K1 (human) = MAP2K1 (human) (UniProt Q02750)
MAP3K7 TAB1 (human) = MAP3K7 TAB1 (human) (UniProt O43318+Q15750)
MLTK (human) = MLTK (human) (UniProt Q9NYL2)
MYO3B (human) = MYO3B (human) (UniProt Q8WXR4)
NEK2 (human) = NEK2 (human) (UniProt P51955)
NEK9 (human) = NEK9 (human) (UniProt Q8TD19)
NUAK2 (human) = NUAK2 (human) (UniProt Q9H093)
PBK (human) = PBK (human) (UniProt Q96KB5)
PRKCB1 (human) = PRKCB1 (human) (UniProt P05771)
PRKCD (human) = PRKCD (human) (UniProt Q05655)
PRKCE (human) = PRKCE (human) (UniProt Q02156)
PRKD3 (human) = PRKD3 (human) (UniProt O94806)
PRKG1 (human) = PRKG1 (human) (UniProt Q13976)
PRKG2 (human) = PRKG2 (human) (UniProt Q13237)
ROCK1 (human) = ROCK1 (human) (UniProt Q13464)
RPS6KA5 KD2 (human) = RPS6KA5 KD2 (human) (UniProt O75582)
SGK2 (human) = SGK2 (human) (UniProt Q9HBY8)
SLK (human) = SLK (human) (UniProt Q9H2G2)
SRMS (human) = SRMS (human) (UniProt Q9H3Y6)
STK4 (human) = STK4 (human) (UniProt Q13043)
TAOK1 (human) = TAOK1 (human) (UniProt Q7L7X3)
TTK (human) = TTK (human) (UniProt P33981)
VRK1 (human) = VRK1 (human) (UniProt Q99986)
YES1 (human) = YES1 (human) (UniProt P07947)
LCK (human) = LCK (human) (UniProt P06239)
NTRK3 (human) = NTRK3 (human) (UniProt Q16288)

NUAK2 (human), sequence (Q9H093 whole entry, looked up): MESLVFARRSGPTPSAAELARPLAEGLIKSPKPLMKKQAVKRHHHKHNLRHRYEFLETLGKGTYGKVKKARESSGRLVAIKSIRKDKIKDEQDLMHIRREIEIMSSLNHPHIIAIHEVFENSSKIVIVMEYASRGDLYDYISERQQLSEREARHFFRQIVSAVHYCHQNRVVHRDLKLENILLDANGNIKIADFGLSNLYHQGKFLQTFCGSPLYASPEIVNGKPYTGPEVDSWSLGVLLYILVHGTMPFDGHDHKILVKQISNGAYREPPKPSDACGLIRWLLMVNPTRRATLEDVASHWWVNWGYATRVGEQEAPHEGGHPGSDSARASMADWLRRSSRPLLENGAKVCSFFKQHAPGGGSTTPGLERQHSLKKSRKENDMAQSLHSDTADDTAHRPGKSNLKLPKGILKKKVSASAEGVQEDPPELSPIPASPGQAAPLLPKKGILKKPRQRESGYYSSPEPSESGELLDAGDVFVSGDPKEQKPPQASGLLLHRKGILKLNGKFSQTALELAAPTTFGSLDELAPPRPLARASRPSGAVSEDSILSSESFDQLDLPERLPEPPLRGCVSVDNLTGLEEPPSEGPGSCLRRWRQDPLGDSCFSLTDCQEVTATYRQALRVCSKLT
BRSK1 (human), sequence (Q8TDC3 whole entry, looked up): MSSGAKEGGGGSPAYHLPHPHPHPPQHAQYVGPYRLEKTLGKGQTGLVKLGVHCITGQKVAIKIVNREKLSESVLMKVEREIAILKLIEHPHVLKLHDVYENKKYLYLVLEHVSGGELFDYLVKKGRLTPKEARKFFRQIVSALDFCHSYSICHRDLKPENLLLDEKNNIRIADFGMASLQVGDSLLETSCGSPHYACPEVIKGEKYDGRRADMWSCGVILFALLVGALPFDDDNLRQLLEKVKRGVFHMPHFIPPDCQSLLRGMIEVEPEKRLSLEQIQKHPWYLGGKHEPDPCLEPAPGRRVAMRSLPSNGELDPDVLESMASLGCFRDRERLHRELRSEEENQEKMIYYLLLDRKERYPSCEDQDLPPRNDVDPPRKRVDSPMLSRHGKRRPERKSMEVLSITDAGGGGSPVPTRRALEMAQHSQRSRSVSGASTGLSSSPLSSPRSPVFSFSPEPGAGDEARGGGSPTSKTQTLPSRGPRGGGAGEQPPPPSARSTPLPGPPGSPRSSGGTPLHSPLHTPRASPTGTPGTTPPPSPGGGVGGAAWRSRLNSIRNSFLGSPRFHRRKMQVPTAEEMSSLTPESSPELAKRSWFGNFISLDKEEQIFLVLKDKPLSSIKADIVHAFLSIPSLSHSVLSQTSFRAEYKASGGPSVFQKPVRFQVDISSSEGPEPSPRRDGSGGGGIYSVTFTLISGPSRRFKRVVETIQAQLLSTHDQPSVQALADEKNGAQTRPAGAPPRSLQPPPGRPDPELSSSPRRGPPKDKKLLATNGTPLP
CLK2 (human), sequence (P49760 whole entry, looked up): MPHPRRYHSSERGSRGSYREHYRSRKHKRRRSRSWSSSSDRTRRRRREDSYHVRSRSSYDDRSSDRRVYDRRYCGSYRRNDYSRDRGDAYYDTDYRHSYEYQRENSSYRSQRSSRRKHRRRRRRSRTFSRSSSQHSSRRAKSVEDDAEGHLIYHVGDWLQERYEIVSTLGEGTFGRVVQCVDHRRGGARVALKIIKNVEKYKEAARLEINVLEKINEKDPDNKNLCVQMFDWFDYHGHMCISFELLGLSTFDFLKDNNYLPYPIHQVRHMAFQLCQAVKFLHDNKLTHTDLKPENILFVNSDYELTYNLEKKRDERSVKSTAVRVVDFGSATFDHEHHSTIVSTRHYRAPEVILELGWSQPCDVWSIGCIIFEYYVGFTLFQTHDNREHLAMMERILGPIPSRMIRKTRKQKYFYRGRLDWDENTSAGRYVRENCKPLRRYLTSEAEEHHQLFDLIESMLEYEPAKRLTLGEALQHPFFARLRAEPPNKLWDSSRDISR
TTK (human), sequence (P33981 whole entry, looked up): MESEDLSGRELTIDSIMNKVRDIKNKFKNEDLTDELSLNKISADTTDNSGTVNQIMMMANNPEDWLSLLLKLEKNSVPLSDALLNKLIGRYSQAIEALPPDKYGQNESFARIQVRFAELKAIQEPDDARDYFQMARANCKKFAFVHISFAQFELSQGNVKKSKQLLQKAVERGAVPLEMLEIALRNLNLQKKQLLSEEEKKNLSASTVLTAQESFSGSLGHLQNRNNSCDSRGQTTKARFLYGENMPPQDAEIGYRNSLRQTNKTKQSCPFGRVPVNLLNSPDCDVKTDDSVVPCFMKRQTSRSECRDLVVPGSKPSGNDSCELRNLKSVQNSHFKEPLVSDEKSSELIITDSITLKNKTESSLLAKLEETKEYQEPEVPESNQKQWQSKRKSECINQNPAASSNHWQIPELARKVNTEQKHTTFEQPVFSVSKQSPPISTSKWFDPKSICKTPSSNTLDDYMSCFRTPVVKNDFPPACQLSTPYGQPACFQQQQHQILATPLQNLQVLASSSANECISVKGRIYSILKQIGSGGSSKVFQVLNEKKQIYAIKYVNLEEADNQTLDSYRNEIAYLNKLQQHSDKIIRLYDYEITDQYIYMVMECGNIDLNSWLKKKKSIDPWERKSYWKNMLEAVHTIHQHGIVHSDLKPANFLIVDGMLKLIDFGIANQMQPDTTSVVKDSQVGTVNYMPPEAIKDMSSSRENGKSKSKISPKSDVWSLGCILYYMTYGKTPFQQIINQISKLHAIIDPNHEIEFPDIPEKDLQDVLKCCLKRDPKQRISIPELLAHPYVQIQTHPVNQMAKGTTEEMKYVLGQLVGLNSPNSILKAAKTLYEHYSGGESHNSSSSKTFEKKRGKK
NEK2 (human), sequence (P51955 whole entry, looked up): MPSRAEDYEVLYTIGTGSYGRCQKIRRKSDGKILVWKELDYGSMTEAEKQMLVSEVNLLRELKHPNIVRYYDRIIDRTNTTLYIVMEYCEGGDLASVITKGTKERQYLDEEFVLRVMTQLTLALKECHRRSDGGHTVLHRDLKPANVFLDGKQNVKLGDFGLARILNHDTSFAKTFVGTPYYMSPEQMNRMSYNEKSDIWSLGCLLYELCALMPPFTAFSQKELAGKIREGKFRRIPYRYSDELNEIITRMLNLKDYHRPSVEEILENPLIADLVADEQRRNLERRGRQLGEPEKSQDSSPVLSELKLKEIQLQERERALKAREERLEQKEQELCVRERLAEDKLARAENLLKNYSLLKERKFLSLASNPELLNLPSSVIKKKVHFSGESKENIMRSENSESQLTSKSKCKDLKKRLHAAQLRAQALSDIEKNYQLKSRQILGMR
MAP2K1 (human), sequence (Q02750 whole entry, looked up): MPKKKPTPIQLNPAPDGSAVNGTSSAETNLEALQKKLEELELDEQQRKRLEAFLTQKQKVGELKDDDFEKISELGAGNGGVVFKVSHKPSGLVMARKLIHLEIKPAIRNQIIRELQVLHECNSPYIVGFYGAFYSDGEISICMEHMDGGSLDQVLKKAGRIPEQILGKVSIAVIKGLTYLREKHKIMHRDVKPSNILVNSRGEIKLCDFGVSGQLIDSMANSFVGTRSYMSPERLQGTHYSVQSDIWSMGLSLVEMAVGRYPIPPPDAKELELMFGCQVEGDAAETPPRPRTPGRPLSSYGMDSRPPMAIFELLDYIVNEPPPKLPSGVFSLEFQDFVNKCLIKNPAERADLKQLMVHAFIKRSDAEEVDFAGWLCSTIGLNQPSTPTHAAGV
CSK (human), sequence (P41240 whole entry, looked up): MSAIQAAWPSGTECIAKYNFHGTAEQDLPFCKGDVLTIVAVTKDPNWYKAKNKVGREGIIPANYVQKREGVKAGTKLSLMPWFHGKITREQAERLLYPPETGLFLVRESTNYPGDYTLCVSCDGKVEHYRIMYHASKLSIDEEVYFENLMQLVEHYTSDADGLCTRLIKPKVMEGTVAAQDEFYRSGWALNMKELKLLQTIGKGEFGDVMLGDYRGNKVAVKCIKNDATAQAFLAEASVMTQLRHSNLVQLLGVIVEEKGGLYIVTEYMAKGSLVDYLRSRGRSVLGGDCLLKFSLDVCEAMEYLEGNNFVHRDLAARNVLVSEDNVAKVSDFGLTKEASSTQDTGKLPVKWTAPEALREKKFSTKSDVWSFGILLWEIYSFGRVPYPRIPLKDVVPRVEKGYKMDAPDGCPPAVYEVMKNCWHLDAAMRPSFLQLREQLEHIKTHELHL
LIMK1 (human), sequence (P53667 whole entry, looked up): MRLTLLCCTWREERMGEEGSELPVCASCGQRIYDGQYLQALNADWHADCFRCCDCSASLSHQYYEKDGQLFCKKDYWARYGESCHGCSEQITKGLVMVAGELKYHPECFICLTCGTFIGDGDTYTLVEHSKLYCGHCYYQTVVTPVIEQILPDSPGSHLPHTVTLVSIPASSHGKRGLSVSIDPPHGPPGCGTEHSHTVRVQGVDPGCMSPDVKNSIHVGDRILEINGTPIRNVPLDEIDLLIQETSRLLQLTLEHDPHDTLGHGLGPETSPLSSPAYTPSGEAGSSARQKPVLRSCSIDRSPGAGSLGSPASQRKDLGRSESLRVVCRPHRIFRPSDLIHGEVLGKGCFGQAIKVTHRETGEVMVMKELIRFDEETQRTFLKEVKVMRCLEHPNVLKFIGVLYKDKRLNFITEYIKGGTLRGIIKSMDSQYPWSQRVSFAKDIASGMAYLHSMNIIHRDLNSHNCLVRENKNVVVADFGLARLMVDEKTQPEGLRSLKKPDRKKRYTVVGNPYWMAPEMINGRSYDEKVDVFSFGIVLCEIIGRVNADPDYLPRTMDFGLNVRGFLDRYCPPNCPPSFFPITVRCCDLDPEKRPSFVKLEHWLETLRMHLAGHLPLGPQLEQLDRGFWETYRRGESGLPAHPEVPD
PBK (human), sequence (Q96KB5 whole entry, looked up): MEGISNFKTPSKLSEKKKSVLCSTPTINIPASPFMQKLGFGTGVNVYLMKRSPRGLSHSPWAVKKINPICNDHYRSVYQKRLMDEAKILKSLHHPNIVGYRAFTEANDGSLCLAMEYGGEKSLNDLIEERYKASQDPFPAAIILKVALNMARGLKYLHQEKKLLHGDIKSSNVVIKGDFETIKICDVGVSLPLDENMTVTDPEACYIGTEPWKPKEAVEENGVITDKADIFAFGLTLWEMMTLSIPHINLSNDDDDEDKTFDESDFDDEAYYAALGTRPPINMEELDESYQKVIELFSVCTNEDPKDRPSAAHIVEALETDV

## CNC(=O)c1cc(Oc2ccc(NC(=O)Nc3ccc(Cl)c(C(F)(F)F)c3)cc2)ccn1
AKT2 (human)
  residual activity: 103%
BMX (human)
  residual activity: 93.3%
BRSK1 (human)
  residual activity: 95.8%
CAMK2D (human)
  residual activity: 102%
CDC42BPB (human)
  residual activity: 102%
CDK4 CCND1 (human)
  residual activity: 96.2%
CLK2 (human)
  residual activity: 92.8%
CSK (human)
  residual activity: 90.3%
DAPK1 (human)
  residual activity: 101%
DMPK (human)
  residual activity: 93.2%
EPHA4 (human)
  residual activity: 92.5%
EPHB1 (human)
  residual activity: 102%
GRK6 (human)
  residual activity: 107%
GSG2 (human)
  residual activity: 99.3%
IKBKE (human)
  residual activity: 89.8%
LIMK1 (human)
  residual activity: 76.8%
MAP2K1 (human)
  residual activity: 102%
MAP3K7 TAB1 (human)
  residual activity: 101%
MLTK (human)
  residual activity: 16.7%
MYO3B (human)
  residual activity: 85.6%
NEK2 (human)
  residual activity: 99.3%
NEK9 (human)
  residual activity: 95.4%
NUAK2 (human)
  residual activity: 101%
PBK (human)
  residual activity: 97.5%
PRKCB1 (human)
  residual activity: 95.1%
PRKCD (human)
  residual activity: 104%
PRKCE (human)
  residual activity: 96.4%
PRKD3 (human)
  residual activity: 94%
PRKG1 (human)
  residual activity: 104% and 88.6%
PRKG2 (human)
  residual activity: 90.9%
ROCK1 (human)
  residual activity: 102%
RPS6KA5 KD2 (human)
  residual activity: 102%
SGK2 (human)
  residual activity: 103%
SLK (human)
  residual activity: 96.8%
SRMS (human)
  residual activity: 107%
STK4 (human)
  residual activity: 101%
TAOK1 (human)
  residual activity: 82%
TTK (human)
  residual activity: 104%
VRK1 (human)
  residual activity: 99.3%
YES1 (human)
  residual activity: 82.8%

## CCN(CC)C(=O)c1ccc(Nc2nc(OCC3CCCCC3)c3nc[nH]c3n2)cc1
AKT2 (human)
  residual activity: 92%
BMX (human)
  residual activity: 42.9%
BRSK1 (human)
  residual activity: 84%
CAMK2D (human)
  residual activity: 94.5%
CDC42BPB (human)
  residual activity: 99.3%
CDK4 CCND1 (human)
  residual activity: 82%
CLK2 (human)
  residual activity: 40.6%
CSK (human)
  residual activity: 83.1%
DAPK1 (human)
  residual activity: 81.6%
DMPK (human)
  residual activity: 105%
EPHA4 (human)
  residual activity: 86.7%
EPHB1 (human)
  residual activity: 75.4%
GRK6 (human)
  residual activity: 99.5%
GSG2 (human)
  residual activity: 94.1%
IKBKE (human)
  residual activity: 77.9%
LCK (human)
  residual activity: 39.8%
LIMK1 (human)
  residual activity: 35.2%
MAP2K1 (human)
  residual activity: 94.1%
MAP3K7 TAB1 (human)
  residual activity: 57.1%
MLTK (human)
  residual activity: 91.4%
NEK2 (human)
  residual activity: 91.4%
NEK9 (human)
  residual activity: 81.9%
NTRK3 (human)
  residual activity: 32.3%
NUAK2 (human)
  residual activity: 23.1%
PBK (human)
  residual activity: 116%
PRKCB1 (human)
  residual activity: 103%
PRKCD (human)
  residual activity: 76.7%
PRKCE (human)
  residual activity: 76.6%
PRKD3 (human)
  residual activity: 66.5%
PRKG1 (human)
  residual activity: 89.8% and 96.1%
PRKG2 (human)
  residual activity: 80%
ROCK1 (human)
  residual activity: 54.9%
RPS6KA5 KD2 (human)
  residual activity: 89.8%
SGK2 (human)
  residual activity: 94.4%
SLK (human)
  residual activity: 71.2%
SRMS (human)
  residual activity: 84.7%
STK4 (human)
  residual activity: 46.3%
TAOK1 (human)
  residual activity: 57.9%
TTK (human)
  residual activity: 47.8%
VRK1 (human)
  residual activity: 93.1%
YES1 (human)
  residual activity: 15.4%

## CCN(CC)CCNC(=O)c1c(C)[nH]c(/C=C2\C(=O)Nc3ccc(F)cc32)c1C
BMX (human)
  residual activity: 99%
BRSK1 (human)
  residual activity: 45.1%
CAMK2D (human)
  residual activity: 11.6%
CDC42BPB (human)
  residual activity: 101%
CDK4 CCND1 (human)
  residual activity: 81%
CLK2 (human)
  residual activity: 13.6%
CSK (human)
  residual activity: 90.2%
DAPK1 (human)
  residual activity: 66.9%
DMPK (human)
  residual activity: 97.7%
EPHA4 (human)
  residual activity: 84.5%
EPHB1 (human)
  residual activity: 53.6%
GRK6 (human)
  residual activity: 74.7%
GSG2 (human)
  residual activity: 53.2%
IKBKE (human)
  residual activity: 45.6%
LIMK1 (human)
  residual activity: 94.3%
MAP2K1 (human)
  residual activity: 67.8%
MAP3K7 TAB1 (human)
  residual activity: 18.6%
MYO3B (human)
  residual activity: 54.5%
NEK2 (human)
  residual activity: 106%
NEK9 (human)
  residual activity: 100%
NUAK2 (human)
  residual activity: 65%
PBK (human)
  residual activity: 106%
PRKCB1 (human)
  residual activity: 90.2%
PRKCD (human)
  residual activity: 95.1%
PRKCE (human)
  residual activity: 98%
PRKD3 (human)
  residual activity: 16.6%
PRKG1 (human)
  residual activity: 65.3% and 88.8%
PRKG2 (human)
  residual activity: 96.1%
ROCK1 (human)
  residual activity: 99.7%
RPS6KA5 KD2 (human)
  residual activity: 60.1%
SGK2 (human)
  residual activity: 93.1%
SLK (human)
  residual activity: 63.8%
SRMS (human)
  residual activity: 99.6%
STK4 (human)
  residual activity: 10.7%
TAOK1 (human)
  residual activity: 71.5%
TTK (human)
  residual activity: 68%
VRK1 (human)
  residual activity: 97.3%
YES1 (human)
  residual activity: 5.91%

From the kinase profiling compilation of Christmann-Franck et al. (2016)
